Legend:
EGFR^del19+T790M+C797S = test: EGFR protein degradation test (Western blot) in Ba/F3 cells expressing mutant EGFR del19+T790M+C797S (DTC); type: cell-based; details: compounds at 0.1 μM and 1 μM, 24 hours, Western blot with EGFR antibody
How it was run: (§1)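 Ba/F3 cells expressing wild-type EGFR, del19+T790M+C797S or L858R+T790M+C797S EGFR were treated with compound at 0.1 μM and 1 μM for 24 h. Lysates (30 μg) were analysed by SDS-PAGE and EGFR Western blot, with bands quantified densitometrically.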

EGFR^L858R+T790M+C797S = target: T1, EGFR^L858R+T790M+C797S (Homo sapiens, UniProt P00533, C797S/L858R/T790M); test: EGFR protein degradation test (Western blot) in Ba/F3 cells expressing mutant EGFR L858R+T790M+C797S (LTC); type: cell-based; details: compounds at 0.1 μM and 1 μM, 24 hours, Western blot with EGFR antibody
T1 construct: expressed in transfected cells; host or cells: Ba/F3
T1 sequence (P00533 25-1210 T790M/C797S/L858R): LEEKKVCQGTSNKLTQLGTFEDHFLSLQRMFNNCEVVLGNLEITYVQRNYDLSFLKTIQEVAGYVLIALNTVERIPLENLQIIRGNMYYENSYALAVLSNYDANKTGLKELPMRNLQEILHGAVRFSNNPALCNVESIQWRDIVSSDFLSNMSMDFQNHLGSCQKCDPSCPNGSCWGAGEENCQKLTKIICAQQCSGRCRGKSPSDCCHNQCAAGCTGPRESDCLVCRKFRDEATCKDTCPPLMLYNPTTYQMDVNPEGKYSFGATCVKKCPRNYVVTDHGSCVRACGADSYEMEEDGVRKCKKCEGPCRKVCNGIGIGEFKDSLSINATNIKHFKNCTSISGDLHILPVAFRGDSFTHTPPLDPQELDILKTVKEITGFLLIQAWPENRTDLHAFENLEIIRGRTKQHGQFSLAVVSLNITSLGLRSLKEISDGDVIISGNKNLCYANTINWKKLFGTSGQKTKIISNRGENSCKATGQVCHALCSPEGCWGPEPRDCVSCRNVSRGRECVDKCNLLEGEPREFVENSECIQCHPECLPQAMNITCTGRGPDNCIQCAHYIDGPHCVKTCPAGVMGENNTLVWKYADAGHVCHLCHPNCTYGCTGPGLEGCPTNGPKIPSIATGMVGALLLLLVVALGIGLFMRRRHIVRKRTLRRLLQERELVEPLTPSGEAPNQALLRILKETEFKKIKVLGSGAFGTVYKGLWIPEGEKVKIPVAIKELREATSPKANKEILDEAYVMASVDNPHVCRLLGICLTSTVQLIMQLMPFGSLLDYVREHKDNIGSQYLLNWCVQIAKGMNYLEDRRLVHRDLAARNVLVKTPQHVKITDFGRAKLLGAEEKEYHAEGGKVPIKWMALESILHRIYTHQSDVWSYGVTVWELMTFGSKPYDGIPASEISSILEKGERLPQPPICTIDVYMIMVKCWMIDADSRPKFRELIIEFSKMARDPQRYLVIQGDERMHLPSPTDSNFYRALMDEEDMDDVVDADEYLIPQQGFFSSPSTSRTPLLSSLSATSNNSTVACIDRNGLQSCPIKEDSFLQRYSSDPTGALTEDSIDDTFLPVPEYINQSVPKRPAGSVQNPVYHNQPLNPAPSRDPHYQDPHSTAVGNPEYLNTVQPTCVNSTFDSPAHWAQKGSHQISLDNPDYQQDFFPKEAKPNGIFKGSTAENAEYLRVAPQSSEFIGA
How it was run: as §1

[1] = Pharmacokinetic evaluation after single oral administration to ICR mice; type: in vivo; details: for half-life / AUC(0-t): mouse, ICR mice, single oral dose 5 mg/kg, plasma; for AUC(0-t): read-out: AUC0-24
Description: Pharmacokinetic tests for the compounds of the present invention were conducted as below. After a single oral administration of the compound of the present invention to ICR mice, the concentration of the compound over time was followed up and analyzed.
The compound of the present invention was suspended in 10% DMSO/90% (30% HPbCD aqueous solution) and orally administered to mice at a dose of 5 mg/kg. Blood was collected at a fixed time and plasma was separated. Drug analysis was performed using HPLC (XBridge column C18, Waters, mobile phase 0.1% formic acid:acetonitrile (30:70, %/%)) and MS/MS (ESI positive, MRM). Mouse blood plasma and each commercially available standard solution were mixed at a ratio of 9:1 to prepare and calibrate at concentrations of […] 5,000 ng/mL. In addition, the preparation of QC samples was prepared by mixing the mouse blood plasma and the standard solution for QC at a ratio of 9:1, and prepared to be concentrations of 100, 750 and 2,500 ng/mL. 100 μL of the plasma sample was transferred to a centrifugation tube, and 10 μL of the internal standard solution and 300 μL of methanol were added, followed by mixing for about 30 seconds for pretreatment. The tube was centrifuged at 3,000×g (4° C.) for about 5 minutes, and the supernatant was taken and transferred to an LC vial and injected into the instrument. Then, the concentration of the compound in mouse plasma was quantified by applying a previously validated assay. For pharmacokinetic parameters, the program WinNonlin 5.2 (Pharsight, USA) was used. AUC0-t, AUC0-∞, Cmax, Tmax, and t1/2 were calculated by Noncompartment modeling (best fit). The pharmacokinetic parameter results were expressed as the mean (Mean) and standard deviation (SD), and were statistically processed using the SPSS program (Statistical Package for the Social Sciences, 10.0K, USA).

[2] = 69, 70, 75, 78, 82 vs compounds 53 and 65
[3] = 74, 76, 77, 80, 81 vs 45, 71, 51, 65, 53

COc1cc(N2CCN(CC3CCN(C(=O)CNc4cccc5c4C(=O)N(C4CCC(=O)NC4=O)C5=O)CC3)CC2)ccc1Nc1ncc(Cl)c(Nc2ccccc2N(C)S(C)(=O)=O)n1 (stereo not shown) [Compound 65, N-(2-((5-chloro-2-((4-(4-((1-((2-(2,6-dioxopiperidin-3-yl)-1,3-dioxoisoindolin-4-yl)glycyl)piperidin-4-yl)methyl)piperazin-1-yl)-2-methoxyphenyl)amino)pyrimidin-4-yl)amino)phenyl)-N-methylmethanesulfonamide]
DTC (EGFR^del19+T790M+C797S) protein degradation (EGFR^del19+T790M+C797S): ++ (Protein degradation > 80%)
LTC (EGFR^L858R+T790M+C797S) protein degradation (EGFR^L858R+T790M+C797S): ++ (Protein degradation > 80%)
half-life [1]: 4.01 h
AUC(0-t) [1]: 607 ng·h/mL

COc1cc(N2CCN(CC3CCN(C(=O)[C@@H](C)Oc4cccc5c4C(=O)N(C4CCC(=O)NC4=O)C5=O)CC3)CC2)ccc1Nc1ncc(Cl)c(Nc2ccccc2N(C)S(C)(=O)=O)n1 (stereo partly shown) [Compound 69]
DTC (EGFR^del19+T790M+C797S) protein degradation (EGFR^del19+T790M+C797S): ++ (Protein degradation > 80%)
LTC (EGFR^L858R+T790M+C797S) protein degradation (EGFR^L858R+T790M+C797S): ++ (Protein degradation > 80%)
AUC compared to the corresponding compounds [1, 2]: significantly improved AUC
half-life [1]: 3.22 h
AUC(0-t) [1]: 280 ng·h/mL

COc1cc(N2CCN(CC3CCN(C(=O)[C@H](C)Nc4cccc5c4C(=O)N(C4CCC(=O)NC4=O)C5=O)CC3)CC2)ccc1Nc1ncc(Cl)c(Nc2ccccc2N(C)S(C)(=O)=O)n1 (stereo partly drawn) [Compound 70, N-(2-((5-chloro-2-((4-(4-((1-((2-(2,6-dioxopiperidin-3-yl)-1,3-dioxoisoindolin-4-yl)-L-alanyl)piperidin-4-yl)methyl)piperazin-1-yl)-2-methoxyphenyl)amino)pyrimidin-4-yl)amino)phenyl)-N-methylmethanesulfonamide]
DTC (EGFR^del19+T790M+C797S) protein degradation (EGFR^del19+T790M+C797S): ++ (Protein degradation > 80%)
LTC (EGFR^L858R+T790M+C797S) protein degradation (EGFR^L858R+T790M+C797S): ++ (Protein degradation > 80%)
AUC compared to the corresponding compounds [1, 2]: significantly improved AUC
half-life [1]: 3.07 h
AUC(0-t) [1]: 598 ng·h/mL

COc1cc(N2CCC(N3CCN(CC4CCN(c5ccc6c(c5)C(=O)N(C5CCC(=O)NC5=O)C6=O)CC4)CC3)CC2)ccc1Nc1ncc(Cl)c(Nc2ccccc2N(C)S(C)(=O)=O)n1 (stereo not shown) [Compound 71, N-(2-((5-chloro-2-((4-(4-(4-((1-(2-(2,6-dioxopiperidin-3-yl)-1,3-dioxoisoindolin-5-yl)piperidin-4-yl)methyl)piperazin-1-yl)piperidin-1-yl)-2-methoxyphenyl)amino)pyrimidin-4-yl)amino)phenyl)-N-methylmethanesulfonamide]
DTC (EGFR^del19+T790M+C797S) protein degradation (EGFR^del19+T790M+C797S): + (Protein degradation 20~80%)
LTC (EGFR^L858R+T790M+C797S) protein degradation (EGFR^L858R+T790M+C797S): ++ (Protein degradation > 80%)
half-life [1]: 7.77 h
AUC(0-t) [1]: 1230 ng·h/mL

COc1cc(N2CCC(N3CCN(CCNc4cccc5c4C(=O)N(C4CCC(=O)NC4=O)C5=O)CC3)CC2)c(C)cc1Nc1ncc(Cl)c(Nc2ccccc2N(C)S(C)(=O)=O)n1 (stereo not shown) [Compound 74, N-(2-((5-chloro-2-((4-(4-(4-(2-((2-(2,6-dioxopiperidin-3-yl)-1,3-dioxoisoindolin-4-yl)amino)ethyl)piperazin-1-yl)piperidin-1-yl)-2-methoxy-5-methylphenyl)amino)pyrimidin-4-yl)amino)phenyl)-N-methylmethanesulfonamide]
DTC (EGFR^del19+T790M+C797S) protein degradation (EGFR^del19+T790M+C797S): − (Protein degradation < 20%)
LTC (EGFR^L858R+T790M+C797S) protein degradation (EGFR^L858R+T790M+C797S): ++ (Protein degradation > 80%)
AUC compared to the corresponding compounds [1, 3]: significantly improved AUC
half-life [1]: 4.44 h
AUC(0-t) [1]: 5520 ng·h/mL

COc1cc(N2CCN(CC3CCN(C(=O)[C@H](C)Nc4cccc5c4C(=O)N(C4CCC(=O)NC4=O)C5=O)CC3)CC2)c(C)cc1Nc1ncc(Cl)c(Nc2ccccc2N(C)S(C)(=O)=O)n1 (stereo partly drawn) [Compound 75, N-(2-((5-chloro-2-((4-(4-((1-((2-(2,6-dioxopiperidin-3-yl)-1,3-dioxoisoindolin-4-yl)-L-alanyl)piperidin-4-yl)methyl)piperazin-1-yl)-2-methoxy-5-methylphenyl)amino)pyrimidin-4-yl)amino)phenyl)-N-methylmethanesulfonamide]
DTC (EGFR^del19+T790M+C797S) protein degradation (EGFR^del19+T790M+C797S): ++ (Protein degradation > 80%)
LTC (EGFR^L858R+T790M+C797S) protein degradation (EGFR^L858R+T790M+C797S): ++ (Protein degradation > 80%)
AUC compared to the corresponding compounds [1, 2]: significantly improved AUC
half-life [1]: 2.82 h
AUC(0-t) [1]: 2040 ng·h/mL

COc1cc(N2CCC(N3CCN(CC4CCN(c5ccc6c(c5)C(=O)N(C5CCC(=O)NC5=O)C6=O)CC4)CC3)CC2)c(C)cc1Nc1ncc(Cl)c(Nc2ccccc2N(C)S(C)(=O)=O)n1 (stereo not shown) [Compound 76, N-(2-((5-chloro-2-((4-(4-(4-((1-(2-(2,6-dioxopiperidin-3-yl)-1,3-dioxoisoindolin-5-yl)piperidin-4-yl)methyl)piperazin-1-yl)piperidin-1-yl)-2-methoxy-5-methylphenyl)amino)pyrimidin-4-yl)amino)phenyl)-N-methylmethanesulfonamide]
DTC (EGFR^del19+T790M+C797S) protein degradation (EGFR^del19+T790M+C797S): + (Protein degradation 20~80%)
LTC (EGFR^L858R+T790M+C797S) protein degradation (EGFR^L858R+T790M+C797S): ++ (Protein degradation > 80%)
AUC compared to the corresponding compounds [1, 3]: significantly improved AUC
half-life [1]: 6.66 h
AUC(0-t) [1]: 5240 ng·h/mL

COc1cc(N2CCC(N3CCN(CCC4CCN(c5ccc6c(c5)C(=O)N(C5CCC(=O)NC5=O)C6=O)CC4)CC3)CC2)c(C)cc1Nc1ncc(Cl)c(Nc2ccccc2N(C)S(C)(=O)=O)n1 (stereo not shown) [Compound 77, N-(2-((5-chloro-2-((4-(4-(4-(2-(1-(2-(2,6-dioxopiperidin-3-yl)-1,3-dioxoisoindolin-5-yl)piperidin-4-yl)ethyl)piperazin-1-yl)piperidin-1-yl)-2-methoxy5-methylphenyl)amino)pyrimidin-4-yl)amino)phenyl)-N-methylmethanesulfonamide]
DTC (EGFR^del19+T790M+C797S) protein degradation (EGFR^del19+T790M+C797S): + (Protein degradation 20~80%)
LTC (EGFR^L858R+T790M+C797S) protein degradation (EGFR^L858R+T790M+C797S): ++ (Protein degradation > 80%)
AUC compared to the corresponding compounds [1, 3]: significantly improved AUC
half-life [1]: 2.96 h
AUC(0-t) [1]: 1170 ng·h/mL

COc1cc(N2CCC(CN3CCN(C(=O)[C@H](C)Nc4cccc5c4C(=O)N(C4CCC(=O)NC4=O)C5=O)CC3)CC2)c(C)cc1Nc1ncc(Cl)c(Nc2ccccc2N(C)S(C)(=O)=O)n1 (stereo partly drawn) [Compound 78, N-(2-((5-chloro-2-((4-(4-((4-((2-(2,6-dioxopiperidin-3-yl)-1,3-dioxoisoindolin-4-yl)-L-alanyl)piperazin-1-yl)methyl)piperidin-1-yl)-2-methoxy-5-methylphenyl)amino)pyrimidin-4-yl)amino)phenyl)-N-methylmethanesulfonamide]
DTC (EGFR^del19+T790M+C797S) protein degradation (EGFR^del19+T790M+C797S): ++ (Protein degradation > 80%)
LTC (EGFR^L858R+T790M+C797S) protein degradation (EGFR^L858R+T790M+C797S): ++ (Protein degradation > 80%)
AUC compared to the corresponding compounds [1, 2]: significantly improved AUC
half-life [1]: 3.75 h
AUC(0-t) [1]: 5740 ng·h/mL

COc1cc(N2CCC(CN3CCN(c4ccc5c(c4)C(=O)N(C4CCC(=O)NC4=O)C5=O)CC3)CC2)c(C)cc1Nc1ncc(Cl)c(Nc2ccccc2N(C)S(C)(=O)=O)n1 (stereo not shown) [Compound 79, N-(2-((5-chloro-2-((4-(4-((4-(2-(2,6-dioxopiperidin-3-yl)-1,3-dioxoisoindolin-5-yl)piperazin-1-yl)methyl)piperidin-1-yl)-2-methoxy-5-methylphenyl)amino)pyrimidin-4-yl)amino)phenyl)-N-methylmethanesulfonamide]
DTC (EGFR^del19+T790M+C797S) protein degradation (EGFR^del19+T790M+C797S): − (Protein degradation < 20%)
LTC (EGFR^L858R+T790M+C797S) protein degradation (EGFR^L858R+T790M+C797S): + (Protein degradation 20~80%)
half-life [1]: 3.47 h
AUC(0-t) [1]: 1130 ng·h/mL

COc1cc(N2CCN(CC3CCN(C(=O)CNc4cccc5c4C(=O)N(C4CCC(=O)NC4=O)C5=O)CC3)CC2)c(C)cc1Nc1ncc(Cl)c(Nc2ccccc2N(C)S(C)(=O)=O)n1 (stereo not shown) [Compound 80, N-(2-((5-chloro-2-((4-(4-((1-((2-(2,6-dioxopiperidin-3-yl)-1,3-dioxoisoindolin-4-yl)glycyl)piperidin-4-yl)methyl)piperazin-1-yl)-2-methoxy-5-methylphenyl)amino)pyrimidin-4-yl)amino)phenyl)-N-methylmethanesulfonamide]
DTC (EGFR^del19+T790M+C797S) protein degradation (EGFR^del19+T790M+C797S): ++ (Protein degradation > 80%)
LTC (EGFR^L858R+T790M+C797S) protein degradation (EGFR^L858R+T790M+C797S): ++ (Protein degradation > 80%)
AUC compared to the corresponding compounds [1, 3]: significantly improved AUC
half-life [1]: 3.55 h
AUC(0-t) [1]: 1040 ng·h/mL
